Reference: patent EP1707197A1 (TEVA PHARMACEUTICAL INDUSTRIES LTD., priority 2005, dated 2006)

Test: small volume in vitro release test in 50 ml 0.1N HCl
Assay type: physicochemical
Conditions: 37° C, 150 rpm
Description: The formulations were tested for their small volume in vitro release characteristics in 50 ml 0.1N HCl at 37° C and 150 rpm using the following procedure:
• a. Automated Dissolution System comprising: • Hanson SR8 Plus Test Station • Hanson Auto Plus Maximiser System Controller • Hanson Auto Plus MultiFill Fraction Collector • b. HPLC System comprising: • pump - Merck Hitachi L-7100 • autoinjector - Merck Hitachi L-7200 • column oven - Merck Hitachi L-7300 • detector - Merck Hitachi L-7400 • interface and integration software - Merck Hitachi D-7000
Place one weighed capsule in each vessel containing 0.1N HCl and immediately operate the apparatus for 30 min. Unless otherwise specified, 3 ml samples are withdrawn from each vessel and immediately filtered through PTFE membranes at 15 and 30 min.
The small volume was chosen as a model of the conditions in a fasted stomach.

CC(C)OC(=O)C(C)(C)Oc1ccc(C(=O)c2ccc(Cl)cc2)cc1 [Micronized Fenofibrate, 2-[4-(4-chlorobenzoyl)phenoxy]-2-methyl-propanoic acid, 1-methylethyl ester]
% dissolved 15 min (15 min): 0% | % dissolved 30 min (30 min): 0%
